In US20210154161A1, “MODIFIED-RELEASE BUCILLAMINE COMPOSITIONS, KITS, AND METHODS FOR TREATING CYSTINURIA, ARTHRITIS, GOUT, AND RELATED DISORDERS” (ALTIBIO, INC., priority 2017, published 2021):

Experiments:
[1] = cystinuria patients; cited from earlier work
[2] = cited from earlier work
[3] = Short- and long-term stability of bucillamine in Beagle dog plasma supernatant (pre-crashed plasma); format: in vitro ADME
Description: (§1) For the analysis, analytical stock solutions (1.00 mg/mL of the free drug) were prepared in DMSO. Also, three standards for use in the analysis were prepared in each of the following media, as follows: (1) in male Beagle plasma containing sodium heparin as the anticoagulant; (2) in Beagle plasma that had previously been treated with acetonitrile to precipitate and remove plasma proteins (the […] supernatant was diluted with acetonitrile (3:1 acetonitrile:plasma supernatant) to give pre-crashed Beagle plasma supernatant); and (3) in 10× diluted Beagle urine, diluted in water. The term “pre-crashed plasma” refers to plasma supernatant, obtained in the centrifugation step described above.
(§2) Stability Testing: Finally, short-term and long-term stability of bucillamine in Beagle dog plasma, pre-crashed plasma (plasma supernatant), and urine were assessed using two bucillamine concentrations (50 ng/mL or 500 ng/mL) under each of the following two conditions: (1) storage on the bench top for 4 hours and (2) frozen at −80° C. for up to one month. Samples were considered stable if their concentrations were within ±20% of nominal. These samples met acceptable criteria for stability and results are presented below, in Tables 5, 6, and 7, showing the % bucillamine remaining in Beagle dog plasma (Table 5), plasma supernatant (Table 6), and urine (Table 7).

[4] = Example 3: cystine stone formation in cystinuria patients, about 1 week; format: in vivo, human; settings: Days 2-8, enterically-coated bucillamine oral 100 mg x 8 or x 12 times/day
Description: This Example describes a study to confirm the improved efficacy of reducing cystine stone formation in cystinuria patients who develop at least one stone per week using standard Thiola® dosing. Study Design: […] The patients are dosed as follows: Day 1: No treatment; an X-ray is taken of the kidney and bladder. Days 2-8: To simulate extended release, enterically-coated bucillamine is orally administered at either 100 mg x 8 times/day (i.e., every three hours) or 100 mg x 12 times/day (i.e., every two hours). A simple enteric coating is used that avoids release in the stomach. Also, 24 hour urine cystine capacity is measured, that is, all urine over a 24-hour period, starting from the time of the first dose, is collected and used to measure urinary cystine concentration. Day 8: X-ray examination of Day 1 is repeated.

[5] = Bucillamine urinary recovery after oral or intraduodenal dosing regimens; format: in vivo, male Beagle dogs; settings: for % of the dose (unchanged drug) found in urine, on average: n=3 dogs
Description: (§3) The objective of this study was to evaluate total and free plasma bucillamine, and urinary bucillamine, in male Beagle dogs following oral and intraduodenal administration of bucillamine, according to various dose regimens, to determine whether different regimens, simulating modified release in accordance with the present invention, would improve drug pharmacokinetics. Specifically, bucillamine formulations were administered to deliver 30 mg/kg per dog via single or multiple doses divided over a 12-hour period; and blood and urine samples then collected at different times post-dose.
(§4) Bucillamine formulations were administered to provide 30 mg/kg per dog according to five different dosage regimens (Leg 1, Leg 2, Leg 3, Leg 4, and Leg 5), as set forth in the table below. Leg 2, Leg 3, and Leg 4 (also referred to as Q6H, Q3H, and Q2H, respectively) were designed to simulate modified-release formulations, in accordance with certain embodiments of the present invention. Following administration, blood and urine samples were collected at the time points, or over the time intervals, also as indicated below.
(§5) Preparation of Dosing Formulations: Capsules for Legs 1-5 were prepared and filled on the day of dosing, as follows. For Legs 1, 2, and 5, bucillamine was dry mixed with avicel and mannitol to make a 40:30:30 mixture of bucillamine to avicel to mannitol, respectively; for study Legs 3 and 4, a 20:40:40 mixture of bucillamine to avicel to mannitol, respectively, was prepared. The dry mixes were custom filled with the appropriate amount of powder to deliver the specified doses to each dog based, on their respective body weights.
(§6) Animal Dosing and Sample Collection: This non-clinical study followed established practices and standard operating procedures of Absorption Systems and Absorption Systems Inc., as well as the study protocol. Study groups each included three dogs. The dogs were housed one per cage. For Legs 1-4, the dogs were fasted for at least six hours prior to each administration of the formulation. For Legs 1-4, food was given approximately ten hours post initial dosing. Animals had free access to water throughout the study. For Leg 5, the dogs were fasted for at least sixteen hours prior to each administration of the formulation. For Leg 5, food was given approximately eight hours post initial dosing. Animals had free access to water throughout the study. Additionally, each dog received a 60 mL subcutaneous injection of saline (a 30 mL injection, into each two different sites) approximately 30 minutes prior to dosing, for hydration.
(§7) Intraduodenal (ID) administration: Animals were anesthetized by a slow IV infusion of Propofol (6-10 mg/kg), or with an intramuscular injection of a cocktail containing ketamine (approximately 10-20 mg/kg), diazepam (3 mg/kg), and acepromazine (0.05 mg/kg) given IM about 5-10 minutes before intubation. Once animals were confirmed adequately anesthetized, they were intubated and maintained using isoflurane (approximately 1-5% in oxygen 1 to 4 L/min) as necessary until dosing was complete. Formulations were administered into the proximal duodenum via endoscopic guidance to verify the dosing site. The endoscope first was maneuvered into the pyloric sphincter with camera visualization of the proximal duodenum. Once there was confirmation that the endoscope was placed between the pylorus and proximal duodenum, the test article was delivered to the proximal duodenum followed by a 5 mL flush. Upon completion of the dosing, the animals were taken off the isoflurane and allowed to recover from anesthesia. Time points began upon completion of the entire dose procedure. Following each blood sampling time point, 15 mL of water was given to each dog via syringe. Approximately 30 minutes prior to the 0 hour blood collection, each dog received a subcutaneous injection of 60 mL of saline (a 30 mL injection into each of two different sites) for hydration. […]

[6] = Example 5: urine cystine in cystinuria dogs, simulated extended-release bucillamine; format: in vivo; settings: enterically-coated bucillamine 8 times/day, same total daily dosage
Description: This Example describes a study to confirm the feasibility of reducing cystine levels in the urine of cystinuria dogs receiving more frequent and lower doses of bucillamine, in a dosing schedule designed to simulate the extended release formulations of the present invention, compared to urine cystine levels in cystinuria dogs receiving non-coated bucillamine. Study Design: Subject dogs are dosed as follows: Day 1: […] Day 2: Repeat Day 1 Day 3: No treatment Day 4: No treatment Day 5: To simulate extended-release, enterically-coated bucillamine is orally administered at lower dose, 8 times/day (i.e., every three hours), to provide a total daily dosage equal to that used in Days 1 and 2. A simple enteric coating is used that avoids release in the stomach. Also, 24 hour urine cystine capacity is measured, that is, all urine over a 24-hour period, starting from the time of the first dose, is collected and used to measure urinary cystine concentration. Day 6: Repeat Day 5

[7] = Free bucillamine plasma concentration after oral or intraduodenal dosing regimens; format: in vivo, male Beagle dogs; settings: for maximum plasma concentrations of free bucillamine (average): n=3 dogs
Description: as §3, §4, §5, §6, §7

[8] = Short- and long-term stability of bucillamine in Beagle dog plasma; format: in vitro ADME
Description: as §2

[9] = Total bucillamine plasma concentration after oral or intraduodenal dosing regimens; format: in vivo, male Beagle dogs; settings: n=3 dogs
Description: as §3, §4, §5, §6
as §7, with “flush.” for “flush. Upon completion of the dosing, the animals were taken off the isoflurane and allowed to recover from anesthesia. Time points began upon completion of the entire dose procedure. Following each blood sampling time point, 15 mL of water was given to each dog via syringe. Approximately 30 minutes prior to the 0 hour blood collection, each dog received a subcutaneous injection of 60 mL of saline (a 30 mL injection into each of two different sites) for hydration.”

[10] = majority of patients; 1,800 mg bucillamine over 7 days; 72 hours post-dose; without rescue drug; cited from earlier work
[11] = Short- and long-term stability of bucillamine in Beagle dog urine; format: in vitro ADME
Description: as §1
Samples were considered stable if their concentrations were within ±20% of nominal. These samples met acceptable criteria for stability and results are presented below, in Tables 5, 6, and 7, showing the % bucillamine remaining in Beagle dog plasma (Table 5), plasma supernatant (Table 6), and urine (Table 7).

[12] = cited from earlier work; remark: listed apart in the source
[13] = cited from earlier work; remark: listed apart in the source
[14] = 50 ng/mL (low), -80 C freezer for 1 week
[15] = 50 ng/mL (low), bench top (RT) for 4 hours
[16] = 500 ng/mL (high), -80 C freezer for 1 week
[17] = 500 ng/mL (high), bench top (RT) for 4 hours
[18] = Leg 2: PO 30 mg/kg as two 15 mg/kg doses at 0 and 6 h
[19] = Leg 3 (Q3H): PO 30 mg/kg as four 7.5 mg/kg doses at 0, 3, 6, 9 h
[20] = Leg 4: PO 30 mg/kg as six 5 mg/kg doses at 0, 2, 4, 6, 8, 10 h
[21] = Leg 5: ID, single 30 mg/kg dose
[22] = Leg 1 (Q12H): PO, single 30 mg/kg dose

CC(C)(S)[C@@H](N)C(=O)O [D-penicillamine]
patients with severe side effects / who cannot tolerate the drug [1]: 50-70% | solubility of the di-sulfide complex formed, relative to cystine [2]: 50 times

CC(C)(S)C(=O)N[C@@H](CS)C(=O)O [bucillamine, N-(2-mercapto-2-methylpropionyl)-L-cysteine]
% Bucillamine Remaining in Beagle Dog Plasma Supernatant [3, 14]: 94.3% | % Bucillamine Remaining in Beagle Dog Plasma Supernatant ([3]; 50 ng/mL (low), -80 C freezer for 2 week): 99.1% | % Bucillamine Remaining in Beagle Dog Plasma Supernatant ([3]; 50 ng/mL (low), -80 C freezer for 4 week): 107% | % Bucillamine Remaining in Beagle Dog Plasma Supernatant [3, 15]: 105% | % Bucillamine Remaining in Beagle Dog Plasma Supernatant [3, 16]: 97.2% | % Bucillamine Remaining in Beagle Dog Plasma Supernatant ([3]; 500 ng/mL (high), -80 C freezer for 2 week): 110% | % Bucillamine Remaining in Beagle Dog Plasma Supernatant ([3]; 500 ng/mL (high), -80 C freezer for 4 week): 119% | % Bucillamine Remaining in Beagle Dog Plasma Supernatant [3, 17]: 117% | additional cystine stones on X-ray of Day 8 compared to Day 1 [4]: no additional stones | % of the dose (unchanged drug) found in urine, on average ([5]; Leg 1: PO, single 30 mg/kg dose): 57.3±25.8% | % of the dose (unchanged drug) found in urine, on average [5, 18]: 54.5±6.63% | % of the dose (unchanged drug) found in urine, on average [5, 19]: 25.8±14.0% | % of the dose (unchanged drug) found in urine, on average [5, 20]: 16.1±5.65% | % of the dose (unchanged drug) found in urine, on average [5, 21]: 20.2±7.51% | share of the drug recovered in urine excreted within the first 4 hours ([5]; Q12H schedule, PO single 30 mg/kg dose, FIG. 22, n=2 dogs): 80% | urine cystine levels over Days 5-6 compared with Days 1-2 of uncoated (immediate-release) dosing [6]: consistently lower | time at which maximum plasma concentrations of free bucillamine were observed [7, 22]: 2 hours post dosing | maximum plasma concentrations of free bucillamine (average) [7, 22]: 2437 ± 728 ng/mL | maximum plasma concentrations of free bucillamine (average) [7, 18]: 3957 ± 1226 ng/mL | maximum plasma concentrations of free bucillamine (average) [7, 19]: 4327 ± 1127 ng/mL | maximum plasma concentrations of free bucillamine (average) [7, 20]: 1820 ± 471 ng/mL | maximum plasma concentrations of free bucillamine (average) [7, 21]: 1187 ± 656 ng/mL | % Bucillamine Remaining in Beagle Dog Plasma [8, 14]: 114% | % Bucillamine Remaining in Beagle Dog Plasma ([8]; 50 ng/mL (low), -80 C freezer for 2 weeks): 108% | % Bucillamine Remaining in Beagle Dog Plasma ([8]; 50 ng/mL (low), -80 C freezer for 4 weeks): 114% | % Bucillamine Remaining in Beagle Dog Plasma [8, 15]: 110% | % Bucillamine Remaining in Beagle Dog Plasma [8, 16]: 96.4% | % Bucillamine Remaining in Beagle Dog Plasma ([8]; 500 ng/mL (high), -80 C freezer for 2 weeks): 97.3% | % Bucillamine Remaining in Beagle Dog Plasma ([8]; 500 ng/mL (high), -80 C freezer for 4 weeks): 107% | % Bucillamine Remaining in Beagle Dog Plasma [8, 17]: 96.9% | maximum plasma concentrations of total bucillamine (average) [9, 22]: 24400 ± 8253 ng/mL | maximum plasma concentrations of total bucillamine (average) [9, 18]: 33533 ± 2139 ng/mL | maximum plasma concentrations of total bucillamine (average) [9, 19]: 25133 ± 3500 ng/mL | maximum plasma concentrations of total bucillamine (average) [9, 20]: 23800 ± 819 ng/mL | maximum plasma concentrations of total bucillamine (average) ([9]; Leg 5 (Q12H): ID, single 30 mg/kg dose): 19940 ± 11015 ng/mL | reduction in target joint pain scores from baseline [10]: at least 50% | % Bucillamine Remaining in Beagle Dog Urine ([11]; High (2500 ng/mL), -80 C freezer for 1 week): 102% | % Bucillamine Remaining in Beagle Dog Urine ([11]; High (2500 ng/mL), -80 C freezer for 2 week): 101% | % Bucillamine Remaining in Beagle Dog Urine ([11]; High (2500 ng/mL), -80 C freezer for 4 week): 96.3% | % Bucillamine Remaining in Beagle Dog Urine ([11]; High (2500 ng/mL), bench top (RT) for 4 hours): 102% | % Bucillamine Remaining in Beagle Dog Urine ([11]; Low (250 ng/mL), -80 C freezer for 1 week): 97.7% | % Bucillamine Remaining in Beagle Dog Urine ([11]; Low (250 ng/mL), -80 C freezer for 2 week): 90.9% | % Bucillamine Remaining in Beagle Dog Urine ([11]; Low (250 ng/mL), -80 C freezer for 4 week): 88.9% | % Bucillamine Remaining in Beagle Dog Urine ([11]; Low (250 ng/mL), bench top (RT) for 4 hours): 93.7%

CC(S)C(=O)NCC(=O)O (stereo not drawn) [tiopronin, alpha-mercaptopropionylglycine]
cases/patients in which the drug is discontinued ([12]; due to adverse reactions, need for frequent dosing, poor efficacy): about 30% | cystinuria patients failed by the medication (continue forming stones) ([12]; human, in vivo): 85% | patients who achieve and maintain therapeutic success ([12]; human, in vivo): 15% | period of effectiveness in reducing cystine urine levels ([12]; human, in vivo): 2 to 4 h | time of primary urine excretion wave after oral administration ([13]; immediate-release tiopronin, oral): 3 to 4 h | time after administration at which urine excretion of free tiopronin and mixed-sulfide tiopronin mostly occurs ([13]; in vivo): 2 to 4 h | free tiopronin excreted in urine within 2 hours of administration ([13]; within 2 hours of Thiola administration): ≤ 95%
